The test system of one data set is CWR22R. Briefly: Anticancer activity against human 22Rv1 cells assessed as cell growth inhibition measured after 48 hrs by MTT assay. The format is functional, cell-based. The conditions noted are these: 22Rv1, 48 h.
Data set [1] has as its system LNCaP C4-2. The data set is described as follows: Anticancer activity against human LNCaP C4-2 cells assessed as cell growth inhibition measured after 48 hrs by MTT assay. It counts as functional, cell-based. The following applies: LNCaP C4-2, 48 h.
The subject of the next data set is PC-3. Briefly: Anticancer activity against human PC-3 cells assessed as cell growth inhibition measured after 48 hrs by MTT assay. It counts as functional, cell-based. The following applies: PC-3, 48 h. A general note: Tetrazolium dyes change colour on reduction, which living cells bring about.
The subject of a further data set is MCF7. Briefly: Anticancer activity against human MCF7 cells assessed as cell growth inhibition measured after 48 hrs by MTT assay. The format is functional, cell-based. The following applies: MCF7, 48 h.
Another data set deals with HEK293. The data set is described as follows: (§1) Cytotoxicity against HEK293 cells assessed as cell growth inhibition measured after 48 hrs by MTT assay. The conditions noted are these: hek293. The format is toxicity, cell-based, Homo sapiens.
Data set [2] relates to Cell membrane. The data set is described as follows: Induction of mitochondrial membrane depolarization in human LNCaP C4-2 cells at 1 ug/ml measured after 48 hrs by JC-1 staining based fluorescence microscopic analysis. The following applies: dose 1.0 µg/ml. It counts as subcellular.
Data set [3] is described as follows: as §1. The following applies: human, HEK293 cells. The format is toxicity, cell-based, Homo sapiens.
The target of data set [4] is T1, Tubulin (Homo sapiens) (UniProt P68371+Q9H4B7+P0DPH7+P68366+Q13509+Q71U36+P04350+Q3ZCM7+P07437+P68363+Q9BQE3+Q6PEY2+Q13885+Q9BVA1+Q9BUF5). Briefly: Induction of tubulin depolymerization in human 22Rv1 cells assessed as decrease in polymerized tubulin level at 20 uM measured after 24 hrs by Bradford assay relative to control. The format is cell-based. More on the design: scale not given: the % may be the effect or the level left.

For data set [5], the system named is LNCaP C4-2. The data set is described as follows: Induction of apoptosis in human LNCaP C4-2 cells assessed as increase in c-Jun level at 10 uM measured after 48 hrs by Western blot analysis. The format is functional, cell-based. Background: A western blot detects proteins with antibodies after separation by electrophoresis.
Data set [6] has as its system LNCaP C4-2. Briefly: Induction of apoptosis in human LNCaP C4-2 cells assessed as increase in p53 level at 10 uM measured after 48 hrs by Western blot analysis. It counts as functional, cell-based.
The subject of data set [7] is LNCaP C4-2. Briefly: Induction of cell death in human LNCaP C4-2 cells assessed as red fluorescence at 10 uM incubated for 48 hrs by ethidium bromide/acridine orange staining based fluorescent microscopic analysis. It counts as functional.
Data set [8] concerns LNCaP C4-2. Briefly: Induction of ROS accumulation in human LNCaP C4-2 cells at 10 uM measured after 48 hrs by H2DCFDA dye based inverted fluorescent microscopic analysis. The format is functional, cell-based.
Data set [9] deals with Cell membrane. The data set is described as follows: Induction of mitochondrial membrane depolarization in human LNCaP C4-2 cells at 10 uM measured after 48 hrs by JC-1 staining based fluorescence microscopic analysis. It counts as subcellular.
Data set [10] concerns LNCaP C4-2. The data set is described as follows: Inhibition of cell migration in human LNCaP C4-2 cells assessed as reduction in cell motility at 10 uM incubated for 12 to 24 hrs by inverted microscopy based scratch wound healing assay. The format is functional. The conditions noted are these: time 12-24 hrs.
For data set [11], the system named is LNCaP C4-2. Briefly: Inhibition of colony formation in human LNCaP C4-2 cells assessed as decrease in colony number at 10 uM measured after 10 days by crystal violet staining based assay. The format is functional, cell-based. The conditions noted are these: time 10.0 day.
Data set [12] deals with LNCaP C4-2. The data set is described as follows: Induction of cytokinesis defect in human LNCaP C4-2 cells at 10 uM measured after 48 hrs by DAPI staining based fluorescence imaging analysis. It counts as functional, cell-based.
The target of data set [13] is T1, Tubulin (Homo sapiens). Briefly: Induction of tubulin depolymerization in human LNCaP C4-2 cells assessed as shrinkage of tubulin at 10 uM measured after 48 hrs by fluorescence microscopic analysis. The format is cell-based.
Data set [14] concerns the target T1, Tubulin (Homo sapiens). Briefly: Induction of tubulin depolymerization in human LNCaP C4-2 cells assessed as tubulin condensation towards nucleus at 10 uM measured after 48 hrs by fluorescence microscopic analysis. It counts as cell-based.

pIC50: −log10 of the molar value. The source made the active and inactive calls. The calls are words filed in the database; no cut-off is given here.

Take `COc1cc(N=S(C)(=O)c2c[nH]c3ccccc23)cc(OC)c1OC` (configuration not stated): the pIC50 (usually the negative decadic logarithm of the IC50, by convention in mol/L) with CWR22R is below 4.40; in the data set on LNCaP C4-2 [1] it was 5.00; in the data set with PC-3 it was 4.66; with MCF7, 4.40; in the data set with HEK293, below 4.40.
Consider `COc1ccc(C[C@H](N)C(=O)N[C@H]2[C@@H](O)[C@H](n3cnc4c(N(C)C)ncnc43)O[C@@H]2CO)cc1`, for which, in the data set on Cell membrane [2], the result was Active.
For the molecule `COc1ccc2[nH]cc(S(C)(=O)=Nc3cc(OC)c(OC)c(OC)c3)c2c1` (configuration not stated), the negative-log IC50 (pIC50) was 5.57 in the data set on CWR22R; below 4.40 with LNCaP C4-2 [1]; below 4.40 in the data set on PC-3; 4.41 in the data set on MCF7; below 4.40 with HEK293.
On to `COc1ccc(N=S(C)(=O)c2c[nH]c3ccc(OC)cc23)cc1` (configuration not stated), for which the negative-log IC50 (pIC50) in the data set with CWR22R was 5.56; in the data set with LNCaP C4-2 [1] it was 4.40; with PC-3, 4.91; in the data set on MCF7, below 4.40; with HEK293, below 4.40.
For `COc1ccc(N=S(C)(=O)c2c[nH]c3ccc(Br)cc23)cc1` (configuration not stated), the pIC50 in the data set with MCF7 is 5.89. In addition, the half-maximal inhibitory concentration (IC50) – broadly, the midpoint of a concentration-inhibition curve – at 48 h in data set [3] was above 40 µM.
Regarding `COc1cc(N=S(C)(=O)c2cn(Cc3ccc(Cl)cc3)c3ccccc23)cc(OC)c1OC` (configuration not stated), the pIC50 was below 4.40 in the data set with CWR22R, 4.40 in the data set on LNCaP C4-2 [1], below 4.40 in the data set on PC-3 and below 4.40 in the data set on HEK293.
For `COc1ccc(N=S(C)(=O)c2c[nH]c3cc(F)ccc23)cc1` (configuration not stated), the Activity on Tubulin (Homo sapiens) [4] was determined as 13%. Further, the outcome with LNCaP C4-2 [5], with LNCaP C4-2 [6], in the data set on LNCaP C4-2 [7], in the data set on LNCaP C4-2 [8], in the data set on Cell membrane [9] and with LNCaP C4-2 [12] was Active. Also, the outcome on Tubulin (Homo sapiens) [13] and on Tubulin (Homo sapiens) [14] was Active. For the same molecule, the negative-log IC50 (pIC50) in the data set on CWR22R is 5.72; in the data set with LNCaP C4-2 [1] it was 5.09; with PC-3, 5.45; with MCF7, 5.77. For the same molecule, the half-inhibitory concentration (IC50) at 48 h in [3] was above 40 µM. For the same molecule, the inhibition result in the data set on LNCaP C4-2 [10] and in the data set with LNCaP C4-2 [11] was “Active” throughout.
Take `Cc1ccc(N=S(C)(=O)c2c[nH]c3ccccc23)cc1` (configuration not stated): the negative logarithm of the IC50 (pIC50) in the data set on CWR22R was below 4.40; in the data set with LNCaP C4-2 [1], 5.64; in the data set with PC-3, below 4.40; in the data set on MCF7, 5.80. The IC50 at 48 h in data set [3] was determined as 40 µM.
Turning to `COc1ccc(N=S(C)(=O)c2c[nH]c3ccccc23)cc1` (configuration not stated), the pIC50 is 5.48 in the data set on CWR22R; 5.71 with LNCaP C4-2 [1]; 4.77 with PC-3; below 4.40 with MCF7; below 4.40 in the data set on HEK293.
For the molecule `CS(=O)(=Nc1ccc(Br)cc1)c1c[nH]c2ccccc12` (configuration not stated), the pIC50 in the data set with CWR22R was below 4.40; with LNCaP C4-2 [1], below 4.40; with PC-3, 4.95; in the data set with MCF7, below 4.40; in the data set on HEK293, below 4.40.
Take `CS(=O)(=Nc1ccc(F)c(F)c1)c1c[nH]c2ccccc12` (configuration not stated): the pIC50 is 4.40 in the data set on CWR22R; 5.72 in the data set with LNCaP C4-2 [1]; 4.84 with PC-3; below 4.40 in the data set with MCF7; below 4.40 in the data set on HEK293.
Take `CS(=O)(=Nc1ccc(F)cc1)c1c[nH]c2ccccc12` (configuration not stated): the negative logarithm of the IC50 (pIC50) is 4.40 in the data set with CWR22R; 5.43 in the data set on LNCaP C4-2 [1]; below 4.40 in the data set on PC-3; 4.40 with MCF7; below 4.40 in the data set on HEK293.
For the molecule `CS(=O)(=Nc1ccccc1)c1c[nH]c2ccccc12` (configuration not stated), the negative logarithm of the IC50 (pIC50) in the data set on CWR22R was below 4.40; in the data set with LNCaP C4-2 [1], 5.05; in the data set on PC-3, below 4.40; with MCF7 it was 5.00; in the data set on HEK293 it was below 4.40.
Regarding `CS(=O)(=Nc1cccc(C(F)(F)F)c1)c1c[nH]c2ccccc12` (configuration not stated), the negative-log IC50 (pIC50) in the data set on CWR22R was below 4.40; with LNCaP C4-2 [1] it was 5.66; in the data set with MCF7, 5.70. Further, the IC50 at 48 h in [3] came to 40 µM.

The values above are taken from ChEMBL document CHEMBL5365455, “Design, synthesis and anticancer activity of N-aryl indolylsulfoximines: Identification of potent and selective anticancer agents” (Bioorg Med Chem, 2023).
